One data set relates to fibroblasts. As to the kind of experiment: Collagen synthesis in fibroblasts (PICP, collagen measuring kit). It is filed as cell-based. To be noted: 72 hours; for Amount of PICP produced in fibroblasts (average ± SEM): non-treated control 47.1 ± 9.7. How it is done: The following experiment was performed by using fibroblasts in order to evaluate the effect of sphingosine kinase activator upon collagen synthesis.
Each of K6PC4, K6PC-5, K6PC-7 and K6PC-9 was dissolved in DMSO at a concentration of 0.3 and 1.0 μg/ml. The solutions were used as samples and analyzed for collagen synthesis after incubation for 72 hours. 72 hours after the treatment of the sample, culture solution was discarded, cells were washed with serum-free DMEM three times, and cells were cultured again by using flesh serum-free DMEM. After incubation, supernatant in each well was combined and analyzed for the amount of PICP (procollagen type I C-peptide) by using a collagen measuring kit. The standard solution contained in the collagen measuring kit was diluted with a sample and absorption at 450 nm was measured to construct a standard concentration curve (see the following Table 2).
To an antibody-coated microtiter plate comprising a primary collagen antibody applied unifomrily thereto, 100 μl of an antibody-POD conjugate solution and the cell supernatant collected as described above were added, followed by incubation at 37° C. for 3 hours, to induce an antigen-antibody reaction. Then, the reaction mixture was subjected to washing and color developing. After the reaction, the reaction mixture developed a yellow color, wherein the yellowness depended on reaction degrees. Also, 96 well plates developing a yellow color were determined at 450 nm by using a microtiter plate reader.

For another data set, the system named is hairless mouse. Put plainly: Recovery of calcium gradient on epidermis, acute disruption model by tape stripping. It is filed as in vivo. To be noted: 1.0% in PEG:EtOH=7:3, after tape stripping, compared to control. How it is done:
To determine the effect of recovering skin barrier effects obtained by the compound according to the present invention, the compound was evaluated for the effect of recovering a calcium ion gradient in the epidermis.
The calcium gradient in the epidermis plays very important role in maintaining homoeostasis of the skin barrier function. For example, when a hairless mouse is subjected to acute disruption on its back by tape stripping, the calcium ion gradient in the epidermis is lost. Therefore, it is possible to evaluate the effect of a test sample upon recovery of a damaged skin barrier by observing recovery of the calcium gradient loss in an acute disruption model.
In the following test, K6PC-5 according to the present invention was evaluated for the effect upon variations in calcium gradient in an acute disruption model.
Tissues non-treated with the sample were provided as control, and tissues were collected right after the tape striping, and 3, 6 and 24 hours after the tape stripping. Then, the tissues treated with K6PC-5 (1.0% in PEG:EtOH=7:3) were compared with controls, which are treated by calcium ion capture cell chemical dyeing. More particularly, each freshly collected tissue sample was fixed with a fixing solution comprising 2% glutaraldehyde, 2% formaldehyde, 90 mM potassium oxalate and 1.4% sucrose and refrigerated at 4° C. […]

The next data set deals with guinea pigs. To be noted: guinea pig, in vivo.
The subject of a further data set is rabbits. To be noted: rabbit, in vivo.
A further data set concerns SD rat. Put plainly: Inhibition of wrinkles and skin aging, UV-induced wrinkle model. It is filed as in vivo. As for the experimental part: Generally, continuous exposure to UV causes wrinkles and side effects such as sun burn and skin irritation, resulting in stimulation of skin aging.
To perform the evaluation, an SD rat with three wrinkles is irradiated with UVB under an intensity of 130 mJ/cm^2 at its rear leg […] for 6 weeks. Then, 10 μl (1% in 80% EtOH) of K6PC-5 was applied to the skin of rear leg right after each time of UV irradiation, UV irradiation being performed 5 times per week during 6 weeks from the start day of the UV irradiation. Nine weeks after the treatment, the rat was anesthetized with albutin and the wrinkles were photographed. Additionally, wrinkle-forming portions were replicated by using an exafine hydrophilic vinyl polysiloxane impression material. The replicated images were analyzed quantitively for shadow images by using an image analyzer.

The subject of another data set is RBL-2H3 cell line. Put plainly: Intracellular calcium movement (fura-2 fluorescence). To be noted: RBL-2H3 cells, fura-2, FIGS. 1a to 1d. In kind it is cell-based. As for the experimental part:
First, the following experiment for calcium movement was performed in order to determine whether the above sphingosine kinase activator compounds activate sphingosine-1-phosphate, so as to cause intracellular calcium movement, which is a typical activity specific to sphingosine-1-phosphate.
The sphingosine kinase activator compounds were determined for capability of inducing intracellular calcium movement by using a RBL-2H3 cell line, which is one of the typical cell lines showing intracellular calcium movement. The cells are cultured by using an RPMI 1640 culture medium and the cells were washed simultaneously with removal of the medium. Then, 10 μM of fura-2/Am and 250 μl M of sulfinpyrazone were added thereto, followed by incubation for 30 minutes. Cell pellets were obtained by centrifugal separation and the cell pellets were dispersed in Ca^2+-free Locke's solution. The dispersion was divided into a unit of 1×10^6 cells for use in treating samples. Next, the cells were introduced into a cuvet of a fluorescence microscope, each sphingosine kinase activator compound was added thereto, and intracellular calcium movement was observed by the fluorescence microscope (RF-5310PC, Spectrofluoro photometer, SHIMADZU). When intracellular calcium ions are detected, they cause fluorescence by bonding with fura-2. Therefore, a degree of calcium movement caused by a sample was evaluated by calculating a difference between the measurement of fura-2 ([…]) bonded with calcium and that of non-bonded fura-2 ([…]).

For the next data set, the system named is rats. To be noted: rat, in vivo.

Experimental for guinea pigs: (§1) Those tests were performed based on “Toxicity Test Standards for Pharmaceutical Products” disclosed by the Korea Food & Drug Administration.
Experimental for human subjects: In this example, effects of improving wrinkles were evaluated in 32 subjects (average age: 46.7). During the total period of 8 weeks, a cream containing 1% of K6PC-5 and cream containing no K6PC-5 (control) were applied around both eye rims and then instrumental evaluation was performed. A silicone replica for the eye tail part of a subject was formed, and the replica was irradiated with light at an angle. Then, a shading degree formed by wrinkles in the replica was photographed by a CCD camera, and the image was determined for a wrinkling degree by using a computer image analysis system. More particularly, a program of Skin Visiometer SV 600 available from C+K Co. (Germany) was used for determination, wherein wrinkle parameters are expressed as R1 through R5 values. R1, R2 and R3 represent deep wrinkles and R4 and R5 represent shallow wrinkles.
Experimental for rabbits: as §1
Experimental for rats: as §1

In the case of `CCCCCCCC(=O)C(CCCCCC)C(=O)NC(CO)CO` (stereo not drawn) [K6PC-5, N-(1,3-dihydroxyisopropyl)-2-hexyl-3-oxo-decanamide], the “Amount of PICP produced in fibroblasts (average ± SEM)” value with fibroblasts (0.3 μg/ml) is 111.2 ± 3.9; in the data set on fibroblasts (1.0 μg/ml), 96.0 ± 5.6. For the same molecule, the “collagen synthesis increase as compared to the non-treated control” value with fibroblasts (fibroblasts, 0.3 or 1.0 μg/ml (concentration not given)) is given as “about 2.4 times”. Moreover, in the data set on hairless mouse, the “recovery of calcium gradient in the epidermis” value was “began to be recovered, from 3 hours after the treatment, to form the normal calcium gradient rapidly”. The “improvement in the condition of wrinkles around the eye” value in the data set with human subjects (cream containing 1% of K6PC-5, 8 weeks, versus control cream, P<0.05 t-test) was “statistically significant improvement in the condition of wrinkles”. For the same molecule, in the data set on human subjects (human, in vivo), the “skin irritation or hypersensitive reaction (inspection of dermatologists)” value is given as “no skin irritation or hypersensitive reaction”. Also, the “Skin sensitization test result” value in the data set on guinea pigs was “No irritation”. Further, the “Ophthalmic mucous membrane irritation test result” value in the data set on rabbits was “No irritation”. The “inhibition of wrinkles compared to vehicle control” value in the data set on SD rat (10 μl of 1% in 80% EtOH after each UVB irradiation (130 mJ/cm^2), 6 weeks, replica image analysis) is reported as “about 63%”. The “erythema caused by UV compared to vehicle control” value with SD rat (10 μl of 1% in 80% EtOH after each UVB irradiation, skin photograph FIG. 4b) is reported as “decrease in erythema”. Besides, in the data set on RBL-2H3 cell line, the intracellular calcium movement result is listed as “caused intracellular calcium movement”. Besides, in the data set on rats, the “Single dose oral toxicity test result” value was “No irritation”.

For the origin of these results see patent publication US20060094790A1, “Use of sphingosine kinase activator as skin disease treating agent and method for treating skin diseases using the same” (priority 2004, published 2006).
